The source made the active and inactive calls.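 Rule for the calls: active = maximal inhibition of USP17 at or above 30% in the confirmation dose-response, a value not among the printed readouts; inactive = the rest.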
What follows are molecules tested against Ubiquitin carboxyl-terminal hydrolase 17-like protein 5 (Homo sapiens) (UniProt A8MUK1) (assay: ubiquitin-specific protease 17 inhibitors, concentration series, biochemical, verification of primary actives (AID 1645864)). Settings: purified USP17, ubiquitin-rhodamine cleavage fluorescence, 3 h.
Chain of Ubiquitin carboxyl-terminal hydrolase 17-like protein 5 (Homo sapiens) (A8MUK1 whole entry, looked up): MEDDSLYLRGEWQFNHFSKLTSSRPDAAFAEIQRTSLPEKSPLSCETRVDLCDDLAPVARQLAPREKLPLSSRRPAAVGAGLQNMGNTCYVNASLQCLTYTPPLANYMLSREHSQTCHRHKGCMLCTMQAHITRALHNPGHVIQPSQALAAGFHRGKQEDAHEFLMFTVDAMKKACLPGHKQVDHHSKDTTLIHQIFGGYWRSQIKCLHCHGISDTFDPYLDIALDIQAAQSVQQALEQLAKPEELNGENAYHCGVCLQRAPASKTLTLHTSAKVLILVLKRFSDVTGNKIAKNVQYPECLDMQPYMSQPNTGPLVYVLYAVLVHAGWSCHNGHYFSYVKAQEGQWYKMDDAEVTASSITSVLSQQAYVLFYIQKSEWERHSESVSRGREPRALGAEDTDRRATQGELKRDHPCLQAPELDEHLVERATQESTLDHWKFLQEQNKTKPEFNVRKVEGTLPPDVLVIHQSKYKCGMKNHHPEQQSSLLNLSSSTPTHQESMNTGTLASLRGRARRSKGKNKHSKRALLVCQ
`Cn1c(=O)sc2cc(NC(=O)c3ccc(Br)cc3)ccc21` showed an IC50 of 1.8 µM. `COCCNC(=O)c1ccn(-c2ccc3ccc(-c4cnn(C)c4)cn23)n1` was tested, and the IC50 was > 50 µM (inactive). `Cc1ccc2cc(CNc3ccccc3)c(=O)n(CC(=O)Nc3ccccc3C)c2c1` showed an IC50 of 9.1 µM. `Cc1cn[nH]c1C1COCCN1C(=O)c1ccc2ncccc2c1` (stereo not given) was tested, and the IC50 was > 50 µM (inactive). With `O=C(CSc1ncnc2c1oc1ccccc12)Nc1ccc2c(c1)OCCO2` the IC50 was 29 µM. With `Cc1cccc(NC(=O)CSc2ncnc3c2sc2nc(CC(C)C)c4c(c23)CCC4)c1` the IC50 was 44.1 µM. `Cc1cccc(O)c1-c1nc2c(-c3nc4c(C(=O)O)cccc4o3)cccc2o1` was tested, and the IC50 was > 50 µM (inactive). `O=C(Nc1ccccc1)c1cn(-c2cc(N3CCCC3)ncn2)cn1` was tested, and the IC50 was > 50 µM (inactive). In the case of `CCOc1ccc(-c2nc(C#N)c(N3CCN(C(=O)c4ccccc4C)CC3)o2)cc1`, the IC50 is reported as 3.3 µM. In the case of `O=C(c1cc(Cl)ccc1Cl)N1CCN(c2ccc3nnc(-c4ccco4)n3n2)CC1`, the IC50 is reported as > 50 µM (inactive). `CCOc1ccc(NC(=O)COc2cccc(-n3cnnn3)c2)cc1` was tested, and the IC50 was > 50 µM (inactive). `O=[N+]([O-])c1ccc2c(c1)nc1n2CCN(Cc2ccco2)C1` was tested, and the IC50 was > 50 µM (inactive). `Cc1ccc2nc(CNC(=O)c3ccccc3-c3nc(-c4ccc(F)cc4)no3)[nH]c2c1` showed an IC50 of 27.2 µM. With `Cc1ccc(NC(=O)Cn2c(-n3nc(C)cc3C)nc3c(c2=O)CCCC3)c(C)c1` the IC50 was 32.6 µM. For `Cc1nc(CN2CCn3c(Cn4cccn4)cnc3C2C)cs1` (stereo not given), the IC50 was > 50 µM (inactive). For `Cc1cccc(C(=O)OCC(=O)Nc2ccc3[nH]c(=O)[nH]c3c2)c1C`, the IC50 was 4.32 µM. Molecule `CCCC(O)CCCCCCCc1cc(O)cc(O)c1C(=O)OC(CCC)CCCCCCCc1cc(O)cc(O)c1` (stereo not given) has an IC50 of 28.6 µM. Work on `CCC/C=C\C#CC/C=C\CCCCCCCC(=O)O` yielded an IC50 of 2.37 µM. In the case of `CN(Cc1ccccc1)S(=O)(=O)c1ccc(S(=O)(=O)N2CCN(C(=O)c3cccnc3)CC2)cc1`, the IC50 is reported as 44 µM. For `O=C(NCC(c1cccnc1)N1CCc2ccccc2C1)C(=O)Nc1ccc2c(c1)OCO2` (stereo not given), the IC50 was 30.5 µM. Molecule `CCC1(C)Cc2c(sc3nc(SCC(=O)Nc4ccc(C(C)=O)cc4)nc(N)c23)CO1` (stereo not given) has an IC50 of 34.9 µM. With `CC(c1ccccc1)n1c(-c2ccc(F)cc2)nc2c(c(=O)c3ccccc3n2C)c1=O` (stereo not given) the IC50 was 2.85 µM. `COc1cc(N)c(Cl)cc1C(=O)OCC(=O)c1ccc2c(c1)OCCO2` was tested, and the IC50 was > 50 µM (inactive). For `O=C(Nc1ccc(Cl)cc1)Nc1cccn2ncnc12`, the IC50 was 21.7 µM. `COc1c2c(cc3cc(O)c4c(=O)cc(C)oc4c13)CCC2=O` showed an IC50 of 34.3 µM. In the case of `Cc1ccccc1NC(=O)C(C)n1c(=O)cc(-c2ccccc2)c2c(C)nn(C)c21` (stereo not given), the IC50 is reported as 2.67 µM. `O=C(OC1CSc2nc3ccccc3n2C1)c1ccc([N+](=O)[O-])o1` (stereo not given) showed an IC50 of 30.5 µM. In the case of `O=C(Nc1ccc2c(c1)OCCO2)C1CCN(C(=O)c2ccccc2)CC1`, the IC50 is reported as > 50 µM (inactive). `COc1cccc2c1OCC(NS(=O)(=O)c1cc(C)ccc1C)C2` (stereo not given) was tested, and the IC50 was > 50 µM (inactive). With `N#Cc1c(Cl)cccc1Oc1ccc(S(=O)(=O)N2CCC(O)CC2)cc1` the IC50 was 27.4 µM. With `Cc1ccc(Nc2nc(Nc3cccc(Cl)c3)nc3nccnc23)cc1` the IC50 was > 50 µM (inactive). `O=C1COc2ccccc2N1Cc1noc(-c2ccccc2)n1` was tested, and the IC50 was > 50 µM (inactive). For `CNC(=O)c1c2n(c3ncccc13)CCN(S(=O)(=O)c1ccc(-c3ccccc3)cc1)C2`, the IC50 was 15 µM. With `COc1ccc(-c2cc(-c3ccc(O)cc3)nc(N)c2C#N)cc1OC` the IC50 was > 50 µM (inactive). `COCCCn1c(C(=O)Nc2ccccc2OC)cc2c(=O)n3ccccc3nc21` showed an IC50 of 12.4 µM. In the case of `COc1cccc(NC(=O)Cn2c(COc3ccccc3)nc3ccccc32)c1`, the IC50 is reported as 4.83 µM. For `COCCCn1c(C(=O)NCCc2ccccc2)cc2c(=O)n3cccc(C)c3nc21`, the IC50 was 28.5 µM. Work on `Cc1sc2ccn(C)c(=O)c2c1C(=O)NC1CCCC1` yielded an IC50 of 3.48 µM. `CC1OC(CC(=O)O)CC23OC12C(=O)c1c(O)cccc1C3=O` (stereo not given) was tested, and the IC50 was 1.33 µM. For `CSc1cccc(C(=O)Nc2ccc(-c3nc4ccccc4[nH]3)cc2)c1`, the IC50 was 9.57 µM. With `O=C(O)C1CCN(Cc2c(-c3ccco3)nc3ccc(Cl)cn23)CC1` the IC50 was > 50 µM (inactive). `Cc1cc(C#N)c2c(C)ccc(C(C)C)cc1-2` was tested, and the IC50 was > 50 µM (inactive). With `COc1ccc(NC(=O)c2nc3n(n2)-c2ccccc2S(=O)(=O)N3)cn1` the IC50 was > 50 µM (inactive). For `Cc1ccc(C)c(-n2c(N)c(C(=O)NCCc3ccccc3)c3nc4ccccc4nc32)c1`, the IC50 was > 50 µM (inactive). With `COc1ccc(/C=C/C(=O)Nc2cccc(S(=O)(=O)Nc3ccccc3Cl)c2)c(OC)c1` the IC50 was 9.3 µM. With `O=C(Cn1cccc1-c1nc(-c2ccccc2)cs1)N1CCOCC1` the IC50 was 16 µM. `CC1=C(Cn2c3cccc(=O)c-3nc3ccccc32)CCC(C)(C)C1` was tested, and the IC50 was 1.52 µM. With `O=C(Cn1c(=O)n(CCCC(=O)N2CC=C(c3ccccc3)CC2)c(=O)c2ccccc21)NCCC1=CCCCC1` the IC50 was 35 µM. In the case of `O=C(NCc1cccnc1)c1cnn2c(C(F)(F)F)cc(-c3ccccc3)nc12`, the IC50 is reported as > 50 µM (inactive). For `O=c1c2ccccc2c(-c2nc(-c3ccncc3)no2)cn1-c1ccccc1`, the IC50 was 2.75 µM.

Reference: PubChem BioAssay AID1645864 (Buhrlage Lab, Dana-Farber Cancer Institute and Novartis …, 2021)
